Experimental data published in patent publication US7109341B2, “Therapeutic amides” (Wayne State University, priority 2002, dated 2006).
Where two headings read alike, the source gives them in different places.

Columns and labels:
[1] = tested on: Pancreatic Ductal Adenocarcinoma #03
Text: Pancreatic ductal adenocarcinoma-03, mammary adenocarcinoma-16/C, mammary adenocarcinoma-17/Adr, and human melanoma LOX were used in the studies. Tumors were maintained in the mouse strain of origin (C57B1/6 for Panc-03 and C3H for the mammary tumors). Balb/c SCID mice (B and T cell deficient) were used for tumor maintenance and chemotherapy trials involving the human melanoma LOX. Tumors were transplanted into the appropriate F1 hybrid (B6D2F1=C57B 1/6 female× DBA/2 male) or the strain of origin for the chemotherapy trials. Individual mouse body weights for each experiment were within 5 grams, and all mice were over 17 grams at the start of therapy. The mice were supplied food and water ad libitum.
Animals were pooled, implanted subcutaneously with 30 to 60 mg tumor fragments by a 12 gauge trocar on day 0, and again pooled before unselective distribution to the various treatment and control groups. For early stage treatment, chemotherapy was started within 1 to 3 days after tumor implantation while the number of cells was relatively small (10^7 to 10^8 cells). For upstaged or advanced staged trials, the tumors were allowed to grow for five or more days before treatment was started. Tumors were measured with a caliper twice weekly. […] Tumor weights are estimated from two-dimensional measurements:
Tumor weight (in mg)=(a×b^2)/2, where a and b are the tumor length and width in (mm), respectively.
a) Tumor growth delay (T−C value), where T is the median time (in days) required for the treatment group tumors to reach a predetermined size (e.g., 1,000 mg), and C is the median time (in days) for the control group tumors to reach the same size. Tumor-free survivors were are excluded from these calculations (cures are tabulated separately). This value is an important criterion of anti-tumor effectiveness because it allows the quantification of tumor cell kill.
b) Calculation of tumor cell kill for subcutaneously (SC) growing tumors. […] The conversion of the T−C values to log10 cell kill is possible because the Td of tumors re-growing post treatment (Rx) approximates the Td values of the tumors in untreated control mice.
In selected cases, both for historic in vivo evaluation data as well as data presented here, it is of value to compare log kill numbers from trials of markedly different testing schedules. […] It should be noted that an activity rating of +++ to ++++ is needed to effect partial regression (PR) or complete regression (CR) of 100 to 300 mg size masses of most transplanted solid tumors of mice. Thus, an activity rating of + or ++ would not be scored as active by usual clinical criteria. A PR is a reduction in tumor mass to less than 50% of pretreatment size. A CR is a reduction in tumor mass to below palpable size (i.e., reduction to zero detectable mass).
The T/C value in percent is an indication of anti-tumor effectiveness: A T/C=0% means no tumor growth. A T/C=100% means no anti-tumor activity, i.e., the treated and control tumors grew equally. […] A T/C value<10% is considered to indicate highly significant anti-tumor activity, and is the level used by NCI to justify a clinical trial if toxicity, formulation, and certain other requirements are met (termed DN-2 level activity).
Compounds as their sodium salts were prepared in a 1% sodium bicarbonate solution, H2O or phosphate buffered saline (PBS), with pH adjusted to 7.0 to 7.5 with HCl, and administered intravenously (IV) or orally (PO), at injection volumes of 0.2 mL per injection.

Human Melanoma LOX = details: Cage 3; IV; qd 1–6, BID 7; total 700 mg/kg
[2] = tested on: Pancreatic Ductal Adenocarcinoma 03; assay: Evaluation against early stage Pancreatic Ductal Adenocarcinoma 03 in female BDF1 mice (Table 4); format: in vivo, mouse; details: PO
Text: The higher dose requirement for compound 14e may be a disadvantage over compound 11b (Cage 14).

[3] = tested on: Mammary Adenocarcinoma 17/ADR; assay: Evaluation against early stage Mammary Adenocarcinoma 17/ADR, C3H/He females (Table 3); format: in vivo; details: IV; short, dose-intense schedule BID-1–3; 162 mg/kg total dose
[4] = Cage 3, IV-SC, qd 3–5, 8–11, BID 6, 7, total 780 mg/kg
[5] = Cage 4, IV-SC, qd 3–5, 8–11, BID 6, 7, total 390 mg/kg
[6] = Cage 5, IV, qd 3, 4, total 30 mg/kg
[7] = Cage 2, 120 mg/kg/inj 2×/day days 3–9, total 1680 mg/kg
[8] = Cage 3, 60 mg/kg/inj 2×/day days 3–9, total 840 mg/kg
[9] = Cage 4, 30 mg/kg/inj 2×/day days 3–9, total 420 mg/kg

Which “Drug Death (day of death)” value [1, 4] does the source give for CC(Oc1ccc(Oc2cnc3ccc(Cl)cc3n2)cc1)C(=O)NCCS(=O)(=O)[O-].[Na+] (stereo not drawn) [Compound 14f, Sodium (2-(4-(7-chloro-2-quinoxalinyl)oxy)phenoxy)propionylamino ethanesulfonate] here?
Its value is 0/5.

What about the “Log Cell Kill” value [1, 4] of the same compound?
Its value is 1.67.

And the “Median Tumor Burden in mg on d17 (range)” value [1, 4]?
Its value is 126 mg.

What about the “T-C” value [1, 4] of the same compound?
Its value is 10.0 days.

And the T/C % [1, 4]?
The T/C % was 10%.

And the “Time to 1000 mg in days (range)” value [1, 4]?
The value was 26 days.

And the “Tumor Free on d35” value [1, 4]?
The value was 0/5.

And the “Comments (activity rating)” value [1, 5]?
The value was “Inactive”.

And the “Drug Death (day of death)” value [1, 5]?
Its value is 0/5.

What about the “Log Cell Kill” value [1, 5] of the same compound?
Its value is 0.58.

What about the “Median Tumor Burden in mg on d17 (range)” value [1, 5] of the same compound?
The value was 600 mg.

And the “T-C” value [1, 5]?
Its value is 3.5 days.

What about the T/C % [1, 5] of the same compound?
The T/C % was 50%.

And the “Time to 1000 mg in days (range)” value [1, 5]?
The value was 19.5 days.

What about the “Tumor Free on d35” value [1, 5] of the same compound?
The value was 0/5.

And the “Comments (activity rating)” value [1, 6]?
The value was “Inactive”.

What about the “Drug Death (day of death)” value [1, 6] of the same compound?
Its value is 0/5.

What about the “Log Cell Kill” value [1, 6] of the same compound?
The value was 0.0.

What about the “Median Tumor Burden in mg on d17 (range)” value [1, 6] of the same compound?
The value was 1420 mg.

And the “T-C” value [1, 6]?
The value was 0.0 days.

What about the T/C % [1, 6] of the same compound?
Its T/C % is >100%.

And the “Time to 1000 mg in days (range)” value [1, 6]?
Its value is 16 days.

And the “Tumor Free on d35” value [1, 6]?
Its value is 0/5.

What about the “Day of Wt. Loss Nadir” value ([1]; mouse, in vivo) of the same compound?
Its value is 11 days.

CC(Oc1ccc(Oc2cnc3ccc(Cl)cc3n2)cc1)C(=O)NCCS(=O)(=O)[O-].[Na+] [Compound 14f (S)] was tested. Which “Comments (activity rating)” value (Human Melanoma LOX) did it give?
Its value is “Inactive”.

What about the “Drug Death (day of death)” value (Human Melanoma LOX) of the same compound?
The value was 0/5.

What about the “Log Cell Kill” value (Human Melanoma LOX) of the same compound?
The value was 0.3.

And the “Median Tumor Burden in mg on d 9 (range)” value (Human Melanoma LOX)?
The value was 994 mg.

What about the “T-C” value (Human Melanoma LOX) of the same compound?
The value was 1.0 days.

And the T/C % (Human Melanoma LOX)?
Its T/C % is 71%.

What about the “Time to 1000 mg days (range)” value (Human Melanoma LOX) of the same compound?
Its value is 9.0 days.

And the “Tumor Free on d 18” value (Human Melanoma LOX)?
The value was 0/5.

How did the “% Body Wt Loss at Nadir” value [2, 7] turn out when CC(Oc1ccc(Oc2ccc3ccc(Cl)cc3n2)cc1)C(=O)N(C)C (stereo not drawn) [Compound 14e, 2-{4-((7-Chloro-2-quinolinyl)oxy)phenoxy}propiondimethylamide] was run?
Its value is “+4.3%”.

And the “% T/C mass” value [2, 7]?
The value was 8.3%.

What about the “Day of Nadir” value [2, 7] of the same compound?
Its value is 9 days.

And the “Drug Deaths” value [2, 7]?
Its value is 0/5.

What about the “Growth Delay” value [2, 7] of the same compound?
Its value is 16.5 days.

What about the “Log Kill” value [2, 7] of the same compound?
The value was 2.5.

And the “Median Tumor Mass on Day 14 (Range)” value [2, 7]?
The value was 126.

What about the “Tumor Free day-37” value [2, 7] of the same compound?
The value was 0/5.

And the toxicity observations [2, 7]?
Its toxicity observations is “no evident toxicity”.

What about the “% Body Wt Loss at Nadir” value [2, 8] of the same compound?
The value was “+3.3%”.

And the “% T/C mass” value [2, 8]?
The value was 15%.

And the “Activity Rating” value [2, 8]?
Its value is “+++ (2.0–2.8)”.

And the “Day of Nadir” value [2, 8]?
The value was 10 days.

What about the “Drug Deaths” value [2, 8] of the same compound?
The value was 0/5.

What about the “Growth Delay” value [2, 8] of the same compound?
The value was 14.5 days.

And the “Log Kill” value [2, 8]?
The value was 2.2.

What about the “Median Tumor Mass on Day 14 (Range)” value [2, 8] of the same compound?
The value was 234.

What about the “Tumor Free day-37” value [2, 8] of the same compound?
Its value is 0/5.

And the “% Body Wt Loss at Nadir” value [2, 9]?
Its value is 0%.

And the “% T/C mass” value [2, 9]?
Its value is 37%.

And the “Day of Nadir” value [2, 9]?
The value was 9 days.

And the “Drug Deaths” value [2, 9]?
Its value is 0/5.

And the “Growth Delay” value [2, 9]?
Its value is 3.5 days.

And the “Log Kill” value [2, 9]?
The value was 0.5.

And the “Median Tumor Mass on Day 14 (Range)” value [2, 9]?
Its value is 567.

What about the “Tumor Free day-37” value [2, 9] of the same compound?
The value was 0/5.

With COc1c(Cl)ccc2ccc(Oc3ccc(OC(C)C(=O)O)cc3)nc12 (stereo not drawn) [Compound 13a, reference compound] as the compound, how does the T/C [3] read?
Its T/C is 7%.

What about the log kill [3] of the same compound?
Its log kill is 1.5.
